Measurements reported in patent publication US8476298B2 (Exelixis, Inc., priority 2003, dated 2013).

What was measured:
[1] = molecular target: T1, c-Met (baculovirus expressed human c-Met kinase domain P948-S1343) (Homo sapiens, UniProt P08581); experiment: c-Met Luciferase-Coupled Chemiluminescent Kinase assay (LCCA); assay type: biochemical;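 note: kinase activity read as percent ATP left after reaction, by luciferase-luciferin chemiluminescence, with 1 µM ATP and 1 µM poly-EY substrate, 2 h at ambient temperature, 10-point dose-response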
T1 construct: human c-Met kinase domain P948-S1343; host or cells: baculovirus expression

[2] = molecular target: T2, KDR (baculovirus expressed human KDR kinase domain D807-V1356) (Homo sapiens, UniProt P35968); experiment: biochemical;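 note: Luciferase-coupled chemiluminescent kinase assay, activity read as percent ATP left after 4 h reaction at ambient temperature, ATP near KM, 10-point dose-response in 384-well plates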
T2 construct: human KDR kinase domain D807-V1356; host or cells: baculovirus expression

[3] = molecular target: T3, Flt-3 (baculovirus expressed human Flt-3 kinase domain R571-S993) (Homo sapiens, UniProt P36888); experiment: biochemical; details: read-out: flt3 IC50;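 note: Luciferase-coupled chemiluminescent kinase assay, activity read as percent ATP left after a 3 h reaction at room temperature, ATP near KM, 10-point dose-response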
T3 construct: human Flt-3 kinase domain R571-S993; host or cells: baculovirus expression
T3 sequence (P36888 571-993): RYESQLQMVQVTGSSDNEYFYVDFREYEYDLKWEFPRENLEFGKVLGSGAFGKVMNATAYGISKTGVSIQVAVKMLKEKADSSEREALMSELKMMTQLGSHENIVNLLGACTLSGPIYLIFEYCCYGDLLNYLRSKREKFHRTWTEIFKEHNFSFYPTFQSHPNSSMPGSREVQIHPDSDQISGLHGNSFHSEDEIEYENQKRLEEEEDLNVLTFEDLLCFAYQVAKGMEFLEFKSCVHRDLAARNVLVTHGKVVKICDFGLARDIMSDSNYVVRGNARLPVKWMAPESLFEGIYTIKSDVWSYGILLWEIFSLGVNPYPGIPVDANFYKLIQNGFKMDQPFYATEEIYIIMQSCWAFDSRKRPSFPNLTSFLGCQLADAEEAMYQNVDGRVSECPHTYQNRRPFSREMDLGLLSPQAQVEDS

T1 sequence (P08581 1011-1343 limits assumed): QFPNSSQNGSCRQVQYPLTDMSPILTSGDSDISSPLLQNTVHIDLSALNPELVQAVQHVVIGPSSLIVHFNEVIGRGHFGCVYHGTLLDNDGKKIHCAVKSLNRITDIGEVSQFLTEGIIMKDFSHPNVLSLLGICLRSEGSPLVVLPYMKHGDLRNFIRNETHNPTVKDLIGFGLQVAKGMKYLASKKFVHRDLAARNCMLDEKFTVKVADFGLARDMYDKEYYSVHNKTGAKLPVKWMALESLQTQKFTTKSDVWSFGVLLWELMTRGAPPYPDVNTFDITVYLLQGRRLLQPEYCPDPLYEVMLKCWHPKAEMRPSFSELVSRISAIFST
T2 sequence (P35968 807-1356): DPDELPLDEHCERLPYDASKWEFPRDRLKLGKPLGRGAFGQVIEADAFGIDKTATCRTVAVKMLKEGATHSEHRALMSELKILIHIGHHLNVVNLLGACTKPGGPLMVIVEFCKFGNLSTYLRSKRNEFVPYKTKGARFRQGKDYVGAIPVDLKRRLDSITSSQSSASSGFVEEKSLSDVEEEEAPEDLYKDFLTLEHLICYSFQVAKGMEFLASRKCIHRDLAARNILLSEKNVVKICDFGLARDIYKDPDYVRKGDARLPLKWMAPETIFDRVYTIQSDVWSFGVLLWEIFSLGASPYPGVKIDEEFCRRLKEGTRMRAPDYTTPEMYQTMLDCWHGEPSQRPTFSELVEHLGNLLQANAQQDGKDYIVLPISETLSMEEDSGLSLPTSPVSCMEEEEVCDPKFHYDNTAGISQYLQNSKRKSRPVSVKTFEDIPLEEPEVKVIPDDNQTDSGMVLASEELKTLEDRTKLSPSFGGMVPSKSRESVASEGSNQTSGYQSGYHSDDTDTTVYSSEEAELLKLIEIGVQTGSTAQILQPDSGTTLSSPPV

| SMILES | IC50 [1] | IC50 [2] | IC50 [3] |
| --- | --- | --- | --- |
| COc1cc2c(Oc3ccc(NC(=O)[C@]4(C(=O)Nc5ccc(F)cc5)C[C@H]4C)cc3F)ccnc2cc1OCCCN1CCNCC1 [Example 356, (1R,2R)-N-[3-fluoro-4-({6-(methyloxy)-7-[(3-piperazin-1-ylpropyl)oxy]quinolin-4-yl}oxy)phenyl]-N′-(4-fluorophenyl)-2-methylcyclopropane-1,1-dicarboxamide] | < 50 nM | < 50 nM | < 50 nM |
| COc1cc2c(Oc3ccc(NC(=O)[C@@]4(C(=O)Nc5ccc(F)cc5)[C@H](C)[C@@H]4C)cc3F)ccnc2cc1OCCCN1CCOCC1 [Example 365, (1r,2R,3S)-N-[3-fluoro-4-({6-(methyloxy)-7-[(3-morpholin-4-ylpropyl)oxy]quinolin-4-yl}oxy)phenyl]-N′-(4-fluorophenyl)-2,3-dimethylcyclopropane-1,1-dicarboxamide] | < 50 nM | 50 to 500 nM | 50 to 500 nM |
| CCN(CC)CCCOc1cc2c(Oc3ccc(NC(=O)C4(C(=O)Nc5ccc(F)cc5)CC4)cc3F)ccnc2cc1OC [Example 344, N-(4-{[6-{[3-(diethylamino)propyl]oxy}-7-(methyloxy)quinolin-4-yl]oxy}-3-fluorophenyl)-N′-(4-fluorophenyl)cyclopropane-1,1-dicarboxamide] | < 50 nM | < 50 nM | < 50 nM |
| CCN(CC)CCOc1cc2nccc(Oc3ccc(NC(=O)[C@]4(C(=O)Nc5ccc(F)cc5)C[C@H]4C)cc3F)c2cc1OC [Example 360, (1R,2R)-N-(4-{[7-{[2-(diethylamino)ethyl]oxy}-6-(methyloxy)quinolin-4-yl]oxy}-3-fluorophenyl)-N′-(4-fluorophenyl)-2-methylcyclopropane-1,1-dicarboxamide] | < 50 nM | < 50 nM | < 50 nM |
| CCN(CC)CCOc1cc2nccc(Oc3ccc(NC(=O)[C@]4(C(=O)Nc5ccc(F)cc5)C[C@@H]4C)cc3F)c2cc1OC [Example 362, (1R,2S)-N-(4-{[7-{[2-(diethylamino)ethyl]oxy}-6-(methyloxy)quinolin-4-yl]oxy}-3-fluorophenyl)-N′-(4-fluorophenyl)-2-methylcyclopropane-1,1-dicarboxamide] | < 50 nM | < 50 nM | < 50 nM |
| CCN(CC)CCCOc1cc2nccc(Oc3ccc(NC(=O)[C@]4(C(=O)Nc5ccc(F)cc5)C[C@H]4C)cc3F)c2cc1OC [Example 359, (1R,2R)-N-(4-{[7-{[3-(diethylamino)propyl]oxy}-6-(methyloxy)quinolin-4-yl]oxy}-3-fluorophenyl)-N′-(4-fluorophenyl)-2-methylcyclopropane-1,1-dicarboxamide] | < 50 nM | < 50 nM | < 50 nM |
| CCN(CC)CCOc1cc2c(Oc3ccc(NC(=O)C4(C(=O)Nc5ccc(F)cc5)CC4)cc3F)ccnc2cc1OC [Example 345, N-(4-{[6-{[2-(diethylamino)ethyl]oxy}-7-(methyloxy)quinolin-4-yl]oxy}-3-fluorophenyl)-N′-(4-fluorophenyl)cyclopropane-1,1-dicarboxamide] | < 50 nM | < 50 nM | < 50 nM |
| COc1cc2nccc(Oc3ccc(NC(=O)C4(C(=O)Nc5ccc(F)cc5)CNC4)cc3)c2cc1OC [Example 353, N-(4-{[6,7-bis(methyloxy)quinolin-4-yl]oxy}phenyl)-N′-(4-fluorophenyl)azetidine-3,3-dicarboxamide] | 50 to 500 nM | 500 to 5000 nM | 500 to 5000 nM |
| COc1cc2c(Oc3ccc(NC(=O)C4(C(=O)Nc5ccc(F)cc5)CC4)cc3F)ccnc2cc1OCCCN1CCN(C(C)C)CC1 [Example 357, N-(3-fluoro-4-{[7-({3-[4-(1-methylethyl)piperazin-1-yl]propyl}oxy)-6-(methyloxy)quinolin-4-yl]oxy}phenyl)-N′-(4-fluorophenyl)cyclopropane-1,1-dicarboxamide] | < 50 nM | < 50 nM | < 50 nM |

Further lines, results first:

| IC50 [1] | IC50 [2] | IC50 [3] | SMILES |
| --- | --- | --- | --- |
| < 50 nM | < 50 nM | 500 to 5000 nM | CCN(CC)CCCOc1cc2nccc(Oc3ccc(NC(=O)C4(C(=O)Nc5ccc(F)cc5)CCC4)cc3F)c2cc1OC [Example 384, N-(4-{[7-{[3-(diethylamino)propyl]oxy}-6-(methyloxy)quinolin-4-yl]oxy}-3-fluorophenyl)-N′-(4-fluorophenyl)cyclobutane-1,1-dicarboxamide] |
| 50 to 500 nM | 500 to 5000 nM | 50 to 500 nM | COc1cc2nccc(Oc3ccc(NC(=O)C4(C(=O)Nc5ccccc5CN5CCOCC5)CC4)cc3)c2cc1OC [Example 397, N-(4-{[6,7-bis(methyloxy)quinolin-4-yl]oxy}phenyl)-N′-[2-(morpholin-4-ylmethyl)phenyl]cyclopropane-1,1-dicarboxamide] |
| 50 to 500 nM | < 50 nM | 50 to 500 nM | COc1cc2c(Oc3ccc(NC(=O)C4(C(=O)Nc5ccc(F)cc5)CCC4)cc3F)ncnc2cc1OCCCN1CCOCC1 [Example 369, N-[3-fluoro-4-({6-(methyloxy)-7-[(3-morpholin-4-ylpropyl)oxy]quinazolin-4-yl}oxy)phenyl]-N′-(4-fluorophenyl)cyclobutane-1,1-dicarboxamide] |
| < 50 nM | < 50 nM | 500 to 5000 nM | COc1cc2c(Oc3ccc(NC(=O)C4(C(=O)Nc5ccc(F)cc5)CC4(C)C)cc3F)ncnc2cc1OCCCN1CCOCC1 (stereo not drawn) [Example 373, N-[3-fluoro-4-({6-(methyloxy)-7-[(3-morpholin-4-ylpropyl)oxy]quinazolin-4-yl}oxy)phenyl]-N′-(4-fluorophenyl)-2,2-dimethylcyclopropane-1,1-dicarboxamide] |
| < 50 nM | < 50 nM | 500 to 5000 nM | CCN(CC)CCCOc1cc2ncnc(Oc3ccc(NC(=O)C4(C(=O)Nc5ccc(F)cc5)CC4(C)C)cc3F)c2cc1OC (stereo not drawn) [Example 379, N-(4-{[7-{[3-(diethylamino)propyl]oxy}-6-(methyloxy)quinazolin-4-yl]oxy}-3-fluorophenyl)-N′-(4-fluorophenyl)-2,2-dimethylcyclopropane-1,1-dicarboxamide] |
| 500 to 5000 nM | > 5000 nM | 50 to 500 nM | COc1cc2nccc(Oc3ccc(NC(=O)C4(C(=O)NCCN5CCOCC5)CC4)cc3)c2cc1OC [Example 393, N-(4-{[6,7-bis(methyloxy)quinolin-4-yl]oxy}phenyl)-N′-(2-morpholin-4-ylethyl)cyclopropane-1,1-dicarboxamide] |
| < 50 nM | < 50 nM | 50 to 500 nM | CCN(CC)CCCOc1cc2ncnc(Oc3ccc(NC(=O)C4(C(=O)Nc5ccc(F)cc5)CCC4)cc3F)c2cc1OC [Example 380, N-(4-{[7-{[3-(diethylamino)propyl]oxy}-6-(methyloxy)quinazolin-4-yl]oxy}-3-fluorophenyl)-N′-(4-fluorophenyl)cyclobutane-1,1-dicarboxamide] |
| < 50 nM | < 50 nM | 50 to 500 nM | CCN(CC)CCOc1cc2nccc(Oc3ccc(NC(=O)C4(C(=O)Nc5ccc(F)cc5)[C@H](C)[C@H]4C)cc3F)c2cc1OC (stereo partly drawn) [Example 391, (2R,3R)-N-(4-{[7-{[2-(diethylamino)ethyl]oxy}-6-(methyloxy)quinolin-4-yl]oxy}-3-fluorophenyl)-N′-(4-fluorophenyl)-2,3-dimethylcyclopropane-1,1-dicarboxamide] |
